The values below come from US20250171437A1 (Agios Pharmaceuticals,Inc., priority 2022, published 2025).

In this experiment the target is T1, human PAH with the R408W mutation (A375 R408W cells) (Homo sapiens, UniProt P00439, R408W).
T1 construct: expressed in transfected cells
T1 sequence (P00439 1-452 R408W): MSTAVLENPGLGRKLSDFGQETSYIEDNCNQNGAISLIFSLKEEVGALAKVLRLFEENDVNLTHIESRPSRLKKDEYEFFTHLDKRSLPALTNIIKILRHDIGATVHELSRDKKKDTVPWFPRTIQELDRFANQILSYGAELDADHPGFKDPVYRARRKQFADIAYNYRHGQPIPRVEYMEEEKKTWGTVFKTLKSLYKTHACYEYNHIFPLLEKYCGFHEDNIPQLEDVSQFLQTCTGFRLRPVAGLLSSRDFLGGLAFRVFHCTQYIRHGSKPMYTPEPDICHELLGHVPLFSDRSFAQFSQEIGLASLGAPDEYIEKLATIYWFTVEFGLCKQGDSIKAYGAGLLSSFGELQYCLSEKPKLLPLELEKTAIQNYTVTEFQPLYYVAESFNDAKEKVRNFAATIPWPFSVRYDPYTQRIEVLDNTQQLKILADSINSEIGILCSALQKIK
As to the kind of experiment: Cell Based Phenylalanine Flux Assay. Conditions: A375 R408W cells; 24 hrs with compound, then 20 μM sepiapterin and 800 μM 13C9,15N-Phenylalanine for 4 hours; 13C-Tyrosine by LC-MS; average where tested multiple times. In short, it runs like this: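 AC50 is derived from LC-MS of 13C-tyrosine in the media after a 4 h pulse of 800 μM 13C9,15N-phenylalanine plus 20 μM sepiapterin. The A375 R408W PAH cells had received duplicate 10-point, 2-fold compound dilutions (0.5% DMSO) for 24 h beforehand.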
What is called AC50 is the midpoint of the concentration-response curve, whichever way the signal moves. For the compound `C[C@H](O)c1nc(C(F)F)c(C(=O)N2CCc3[nH]cnc3[C@@H]2c2nc3c(F)cccc3o2)o1` [Example 228, (4-(difluoromethyl)-2-((S)-1-hydroxyethyl)oxazol-5-yl)((R)-4-(4-fluorobenzo[d]oxazol-2-yl)-6,7-dihydro-1H-imidazo[4,5-c]pyridin-5(4H)-yl)methanone], the AC50 is 1000 to 5000 nM.
Turning to `C[C@@H](O)c1nc(C(F)F)c(C(=O)N2CCc3[nH]cnc3[C@H]2c2nc3c(F)cccc3o2)o1` [Example 229, (4-(difluoromethyl)-2-((R)-1-hydroxyethyl)oxazol-5-yl)((S)-4-(4-fluorobenzo[d]oxazol-2-yl)-6,7-dihydro-1H-imidazo[4,5-c]pyridin-5(4H)-yl)methanone], the AC50 was at most 500 nM.
Consider `C[C@@H](O)c1nc(C(F)F)c(C(=O)N2CCc3[nH]cnc3[C@@H]2c2nc3c(F)cccc3o2)o1` [Example 230, (4-(difluoromethyl)-2-((R)-1-hydroxyethyl)oxazol-5-yl)((R)-4-(4-fluorobenzo[d]oxazol-2-yl)-6,7-dihydro-1H-imidazo[4,5-c]pyridin-5(4H)-yl)methanone], for which the AC50 is 1000 to 5000 nM.
The result for `C[C@H](O)c1nc(C(F)F)c(C(=O)N2CCc3[nH]cnc3[C@H]2c2nc3ccc(F)cc3o2)o1` [Example 231, (4-(difluoromethyl)-2-((S)-1-hydroxyethyl)oxazol-5-yl)((S)-4-(6-fluorobenzo[d]oxazol-2-yl)-6,7-dihydro-1H-imidazo[4,5-c]pyridin-5(4H)-yl)methanone] reads 500 to 1000 nM; that for `C[C@H](O)c1nc(C(F)F)c(C(=O)N2CCc3[nH]cnc3[C@@H]2c2nc3ccc(F)cc3o2)o1` [Example 232, (4-(difluoromethyl)-2-((S)-1-hydroxyethyl)oxazol-5-yl)((R)-4-(6-fluorobenzo[d]oxazol-2-yl)-6,7-dihydro-1H-imidazo[4,5-c]pyridin-5(4H)-yl)methanone], 1000 to 5000 nM.
The result for `O=C(c1oc(C2(O)CC2)nc1C(F)F)N1CCc2[nH]cnc2[C@H]1c1nc2ccc(F)cc2o1` [Example 237, (S)-(4-(difluoromethyl)-2-(1-hydroxycyclopropyl)oxazol-5-yl)(4-(6-fluorobenzo[d]oxazol-2-yl)-6,7-dihydro-1H-imidazo[4,5-c]pyridin-5(4H)-yl)methanone] reads 1000 to 5000 nM; that for `O=C(c1oc(C2(O)CC2)nc1C(F)F)N1CCc2[nH]cnc2[C@@H]1c1nc2ccc(F)cc2o1` [Example 238, (R)-(4-(difluoromethyl)-2-(1-hydroxycyclopropyl)oxazol-5-yl)(4-(6-fluorobenzo[d]oxazol-2-yl)-6,7-dihydro-1H-imidazo[4,5-c]pyridin-5(4H)-yl)methanone], 1000 to 5000 nM.
For the compound `C[C@@H](O)c1nc(C(F)F)c(C(=O)N2CCc3[nH]cnc3[C@H]2c2nc3ccc(F)cc3o2)o1` [Example 239, (4-(difluoromethyl)-2-((R)-1-hydroxyethyl)oxazol-5-yl)((S)-4-(6-fluorobenzo[d]oxazol-2-yl)-6,7-dihydro-1H-imidazo[4,5-c]pyridin-5(4H)-yl)methanone], the AC50 fell in the range of 500 to 1000 nM.
On to `C[C@@H](O)c1nc(C(F)F)c(C(=O)N2CCc3[nH]cnc3[C@@H]2c2nc3ccc(F)cc3o2)o1` [Example 240, (4-(difluoromethyl)-2-((R)-1-hydroxyethyl)oxazol-5-yl)((R)-4-(6-fluorobenzo[d]oxazol-2-yl)-6,7-dihydro-1H-imidazo[4,5-c]pyridin-5(4H)-yl)methanone], for which the AC50 lay within 1000 to 5000 nM.
For the compound `Cc1nc([C@H](C)O)oc1C(=O)N1CCc2[nH]cnc2[C@H]1c1nc2ccc(F)cc2o1` [Example 241, ((S)-4-(6-fluorobenzo[d]oxazol-2-yl)-6,7-dihydro-1H-imidazo[4,5-c]pyridin-5(4H)-yl)(2-((S)-1-hydroxyethyl)-4-methyloxazol-5-yl)methanone], the AC50 lay in the range of 1000 to 5000 nM.
For `Cc1nc([C@H](C)O)oc1C(=O)N1CCc2[nH]cnc2[C@@H]1c1nc2ccc(F)cc2o1` [Example 242, ((R)-4-(6-fluorobenzo[d]oxazol-2-yl)-6,7-dihydro-1H-imidazo[4,5-c]pyridin-5(4H)-yl)(2-((S)-1-hydroxyethyl)-4-methyloxazol-5-yl)methanone], the AC50 is at least 5000 nM.
In the case of `C[C@H](O)c1nc(C(F)F)c(C(=O)N2CCc3[nH]cnc3[C@H]2c2nc3cccc(F)c3o2)o1` [Example 243, (4-(difluoromethyl)-2-((S)-1-hydroxyethyl)oxazol-5-yl)((S)-4-(7-fluorobenzo[d]oxazol-2-yl)-6,7-dihydro-1H-imidazo[4,5-c]pyridin-5(4H)-yl)methanone], the concentration at half-maximal activity (AC50) was at most 500 nM.
As for `C[C@H](O)c1nc(C(F)F)c(C(=O)N2CCc3[nH]cnc3[C@@H]2c2nc3cccc(F)c3o2)o1` [Example 244, (4-(difluoromethyl)-2-((S)-1-hydroxyethyl)oxazol-5-yl)((R)-4-(7-fluorobenzo[d]oxazol-2-yl)-6,7-dihydro-1H-imidazo[4,5-c]pyridin-5(4H)-yl)methanone], the AC50 was 500 to 1000 nM.
The result for `C[C@@H](O)c1nc(C(F)F)c(C(=O)N2CCc3[nH]cnc3[C@H]2c2nc3cccc(F)c3o2)o1` [Example 245, (4-(difluoromethyl)-2-((R)-1-hydroxyethyl)oxazol-5-yl)((S)-4-(7-fluorobenzo[d]oxazol-2-yl)-6,7-dihydro-1H-imidazo[4,5-c]pyridin-5(4H)-yl)methanone] reads at most 500 nM; that for `C[C@@H](O)c1nc(C(F)F)c(C(=O)N2CCc3[nH]cnc3[C@@H]2c2nc3cccc(F)c3o2)o1` [Example 246, (4-(difluoromethyl)-2-((R)-1-hydroxyethyl)oxazol-5-yl)((R)-4-(7-fluorobenzo[d]oxazol-2-yl)-6,7-dihydro-1H-imidazo[4,5-c]pyridin-5(4H)-yl)methanone], at most 500 nM.
For `Cc1nc([C@H](C)O)oc1C(=O)N1CCc2[nH]cnc2[C@H]1c1nc2cccc(F)c2o1` [Example 247, ((S)-4-(7-fluorobenzo[d]oxazol-2-yl)-6,7-dihydro-1H-imidazo[4,5-c]pyridin-5(4H)-yl)(2-((S)-1-hydroxyethyl)-4-methyloxazol-5-yl)methanone], the AC50 lay within 500 to 1000 nM.
As for `Cc1nc([C@H](C)O)oc1C(=O)N1CCc2[nH]cnc2[C@@H]1c1nc2cccc(F)c2o1` [Example 248, ((R)-4-(7-fluorobenzo[d]oxazol-2-yl)-6,7-dihydro-1H-imidazo[4,5-c]pyridin-5(4H)-yl)(2-((S)-1-hydroxyethyl)-4-methyloxazol-5-yl)methanone], the AC50 is 1000 to 5000 nM.
The result for `CC(C)(O)c1nc(Br)c(C(=O)N2CCc3[nH]cnc3[C@H]2c2nc3ccc(F)cc3o2)o1` [Example 249, (S)-(4-bromo-2-(2-hydroxypropan-2-yl)oxazol-5-yl)(4-(6-fluorobenzo[d]oxazol-2-yl)-6,7-dihydro-1H-imidazo[4,5-c]pyridin-5(4H)-yl)methanone] reads 500 to 1000 nM.
Regarding `CC(C)(O)c1nc(Br)c(C(=O)N2CCc3[nH]cnc3[C@@H]2c2nc3ccc(F)cc3o2)o1` [Example 250, (R)-(4-bromo-2-(2-hydroxypropan-2-yl)oxazol-5-yl)(4-(6-fluorobenzo[d]oxazol-2-yl)-6,7-dihydro-1H-imidazo[4,5-c]pyridin-5(4H)-yl)methanone], the AC50 is at least 5000 nM.
The result for `CC(C)(O)c1nc(Br)c(C(=O)N2CCc3[nH]cnc3[C@@H]2c2nc3c(F)cccc3o2)o1` [Example 251, (R)-(4-bromo-2-(2-hydroxypropan-2-yl)oxazol-5-yl)(4-(4-fluorobenzo[d]oxazol-2-yl)-6,7-dihydro-1H-imidazo[4,5-c]pyridin-5(4H)-yl)methanone] reads 1000 to 5000 nM; that for `CC(C)(O)c1nc(Br)c(C(=O)N2CCc3[nH]cnc3[C@H]2c2nc3c(F)cccc3o2)o1` [Example 252, (S)-(4-bromo-2-(2-hydroxypropan-2-yl)oxazol-5-yl)(4-(4-fluorobenzo[d]oxazol-2-yl)-6,7-dihydro-1H-imidazo[4,5-c]pyridin-5(4H)-yl)methanone], at most 500 nM; that for `CC(C)(O)c1nc(C(F)(F)F)c(C(=O)N2CCc3[nH]cnc3[C@H]2c2nc3cccc(F)c3o2)o1` [Example 253, (S)-(4-(7-fluorobenzo[d]oxazol-2-yl)-6,7-dihydro-1H-imidazo[4,5-c]pyridin-5(4H)-yl)(2-(2-hydroxypropan-2-yl)-4-(trifluoromethyl)oxazol-5-yl)methanone], at most 500 nM.
With `CC(C)(O)c1nc(C(F)(F)F)c(C(=O)N2CCc3[nH]cnc3[C@@H]2c2nc3cccc(F)c3o2)o1` [Example 254, (R)-(4-(7-fluorobenzo[d]oxazol-2-yl)-6,7-dihydro-1H-imidazo[4,5-c]pyridin-5(4H)-yl)(2-(2-hydroxypropan-2-yl)-4-(trifluoromethyl)oxazol-5-yl)methanone], the AC50 is at most 500 nM.
Turning to `CC(C)(O)c1nc(C(F)(F)F)c(C(=O)N2CCc3[nH]cnc3[C@H]2c2nc3ccc(F)cc3o2)o1` [Example 255, (S)-(4-(6-fluorobenzo[d]oxazol-2-yl)-6,7-dihydro-1H-imidazo[4,5-c]pyridin-5(4H)-yl)(2-(2-hydroxypropan-2-yl)-4-(trifluoromethyl)oxazol-5-yl)methanone], the AC50 was at most 500 nM.
